# Reference: publication PMC9571290, “Preliminary Structure–Activity Relationship Study of the MMV Pathogen Box Compound MMV675968 (2,4-Diaminoquinazoline) Unveils Novel Inhibitors of Trypanosoma brucei brucei” (Molecules, 2022)
# Like-named read-outs stand apart in the source and are kept apart here.
# Columns and labels:
# DHFR [1] = tested on: DHFR; parameters: method as in PMID 7799402; conditions: read-out: IC50 DHFR Pneumocystis carinii; cited from earlier work
# Cryptosporidium parvum = tested on: Cryptosporidium parvum; parameters: method as in PMID 11709300; conditions: read-out: IC50 phenotypic whole parasite testing; cited from earlier work
# Toxoplasma gondii = tested on: Toxoplasma gondii; parameters: method as in PMID 29133550; conditions: read-out: IC50 against Toxoplasma gondii; cited from earlier work
# in vitro = conditions: African green monkey
# Procedure: (§1) The resulting pellet was resuspended and counted in a Neubauer chamber in the presence of trypan blue to exclude nonviable cells colored in blue. Once the cell load was estimated, they were either used for the next passage in a new flask or processed for the cytotoxicity assay.
# (§2) Briefly, Vero cells at a density of 10^4 cells per well were plated in 100 µL of complete DMEM and incubated overnight to allow cell attachment. Plates were then controlled under an inverted fluorescence microscope (Lumascope LS520) to ensure adherence, sterility and cell integrity. Thereafter, culture medium from each well was carefully emptied, and plates were filled with 90 µL of fresh complete medium followed by the addition of 10 µL of serial 5-fold dilutions of compound solutions. […] Fluorescence was then read using a Magelan Infinite M200 fluorescence multiwell plate reader (Tecan) with excitation and emission wavelengths of 530 and 590 nm, respectively. The percentage of cell viability was calculated from readouts, and the median cytotoxic concentration (CC50) for each compound was deduced from concentration–response curves using GraphPad Prism 8.0 software as described above. Selectivity indexes were then determined for each test substance as follows: SI = CC50(Vero cells)/IC50(T. brucei brucei).
# P. falciparum = tested on: P. falciparum; parameters: method as in PMID 28674055; conditions: cited from earlier work
# [2] = tested on: Cryptosporidium parvum-I DHFR; parameters: method as in PMID 11709300; conditions: in vitro; cited from earlier work
# DHFR [3] = tested on: DHFR; parameters: method as in PMID 7799402; conditions: read-out: IC50 DHFR Toxoplasma gondii; cited from earlier work
# [4] = tested on: bloodstream forms of Trypanosoma brucei brucei; assay: resazurin-based antitrypanosomal inhibition assay; assay type: cell-based; conditions: for pIC50 T. b. b.: Table 2
# Procedure: Parasites were axenically cultivated in sterile vented flasks containing complete Hirumi’s modified Iscove’s medium 9 (HMI-9) [500 mL IMDM (Iscove’s modified Dulbecco’s medium) (Gibco, Waltham, MA, USA) supplemented with 10% (v/v) heat-inactivated fetal bovine serum (HIFBS) (Sigma Aldrich), 10% (v/v) serum plus (Sigma Aldrich), HMI-9 supplement (1 mM hypoxanthine, 0.16 mM thymidine, 50 µM bathocuproine disulfonic acid, 1.5 mM cysteine, 1.25 Mm pyruvic acid, 0.2 mM 2-mercaptoethanol (Sigma Aldrich)), and 1% (v/v) penicillin–streptomycin (Sigma Aldrich) and incubated at 37 °C in a 5% CO2 atmosphere.
# The in vitro inhibitory potency of the 400 MMVPB compounds against bloodstream forms of Trypanosoma brucei brucei was evaluated using the resazurin-based inhibition assay as previously described. Briefly, parasites at their mid-logarithmic growth phase were counted, and the cell density was adjusted with fresh complete HMI-9 medium to 2 × 10^5 trypanosomes per mL. Then, 90 µL of parasite suspension was then distributed into the wells of 96-well flat-bottomed plates containing 10 µL of compounds for a final test concentration of 10 µM. […] Each assay plate was set up in duplicate and repeated two times. The percent parasite inhibition was determined for each compound based on fluorescence readouts relative to the mean fluorescence of negative control wells.
# y = 100/[1+ 10^(logIC50/99-x)H], where H is the hill coefficient or slope factor [60].
# T. b. brucei = tested on: T. b. brucei; parameters: method as in Duffy et al., 13; conditions: ref Duffy et al., 13; read-out: IC50 against T. b. brucei; cited from earlier work
# [5] = tested on: kinetoplastids (T. brucei brucei and T. brucei rhodesiense); parameters: method as in MMV Pathogen Box supporting information; conditions: against kinetoplastids; ref MMV Pathogen Box supporting information; read-out: Reported IC50; cited from earlier work
# Vero cells = assay: cytotoxicity against Vero cells (resazurin viability assay); conditions: read-out: CC50 Vero; Table 2
# Procedure: as §1, §2
# [6] = tested on: bloodstream form of Trypanosoma brucei brucei; assay: parasite-killing kinetics and cidal or static effect; assay type: cell-based; conditions: IC90 and IC99; removal at 4 h (10) or 24 h (7), subculture in inhibitor-free medium
# Procedure: Thus, they were selected, and their effect at various concentrations was assessed on the proliferation rate of the bloodstream form of Trypanosoma brucei brucei using microscopic cell count. […] After specified exposure time intervals (0, 4, 8, 12, 24, 30, 36, 48, 60, 72 h), the content of each well was harvested and counted on a Neubauer hemacytometer to determine the number of mobile parasites. The obtained values were used to plot the growth curves as parasite density (cells/mL) versus incubation time using GraphPad Prism 8.0 software.
# Therefore, the ability of parasites to recover post exposure to inhibitors 10 and 7 was further evaluated. […] After that, the cells were washed three times with fresh complete medium by centrifugation at 2500 rpm for 7 min. Cell pellets were thereafter resuspended in fresh complete culture medium in a 24-well plate and subcultured under the same conditions for 68 h for compound 10 and 48 h for compound 7 to achieve the complete parasite growth pattern. Thereafter, cells were enumerated using the Neubauer cell counter at each time point. The assay was performed in duplicate, and the mean cell counts were plotted […] against time using GraphPad Prism 8.0 to assess the cidal or static effect of inhibitors.
# [7] = ferric ion reducing antioxidant power (FRAP); conditions: Fe^3+-reducing activity
# Procedure: Iron is one of the vital elements for all parasites, including trypanosomes, as it plays a key role in pathogenesis and the host immune response. Therefore, iron bioavailability reducing agents to the parasite could be potential candidates for drug development against trypanosomiasis. To this end, we determined the capacity of the test compounds to reduce iron from ferric to ferrous status using the method described by Benzie et al.. Briefly, 25 µL of each compound (7 and 10) was added to 25 µL of a solution of Fe^3+ prepared at 1.2 mg/mL in distilled water in a 96-well microplate. The plate was incubated for 15 min at room temperature in darkness, after which 50 µL of ortho-phenanthroline (0.2% in methanol) was added to achieve final compound concentrations ranging from 400 µM to 0.19 µM. Plates were reincubated for 15 min, and the absorbance was measured at 510 nm. Ascorbic acid was used as a positive control and tested at concentrations ranging from 100 to 0.048 μg/mL. The median reducing concentration (RC50) values of compounds were determined through sigmoidal concentration–response curves using GraphPad Prism version 8.0 software.
# [8] = Trypanosoma brucei, Table 4, negative log of IC50 in molar, read-out: pIC50 T. b. b. (converted)
# [9] = Table 2, MMVPB compounds with known anti-kinetoplastid activity, read-out: IC50 ± SD T. b. b.
Structure (SMILES),IC50 [5],CC50 (Vero cells),"IC50 [4, 9]",pIC50 T. b. b. ([4]; negative log of IC50 in molar),further results
"COc1ccc(OC)c(NCc2ccc3nc(N)nc(N)c3c2Cl)c1 [Analog 1, 2,4-diamino-5-chloro-6-[(2,5-dimethoxyanilino)methyl]quinazoline]",–,–,–,–,"IC50 (DHFR [1]): 51 nM; IC50 (Cryptosporidium parvum): 200 nM; IC50 (Toxoplasma gondii): 20 nM; CC50 at 48 h (in vitro): > 100000 nM; IC50 (P. falciparum): 70 nM; IC50 [2]: 6.5 nM; IC50 (DHFR [3]): 30 nM; IC50 ([4]; Table 4, analogs of MMV675968, solid material, read-out: IC50 ± SD T. b. b.): 2600 nM; IC50 ([4]; Trypanosoma brucei, Table 3, MMVPB compounds with known potency against other diseases, read-out: IC50 ± SD T. b. b.): 2800 ± 70 nM; IC50 ([4]; Trypanosoma brucei, Table 3, negative log of IC50 in molar, read-out: pIC50 T. b. b. (converted)): 2820 nM; IC50 ([4]; Trypanosoma brucei, Table 4, analogs of MMV675968, solid material, read-out: IC50 ± SD T. b. b.): 2600 to 2800 nM; IC50 [4, 8]: 2630 nM"
Cc1nn(C)c(C)c1NS(=O)(=O)c1c(Cl)cc(-c2ccnc(N3CCNCC3)c2)cc1Cl [MMV688180],< 130 nM,> 100000 nM,2.3 nM,8.64,"IC50 (T. b. brucei): 10 nM; IC50 ([4]; given in nM, read-out: IC50 against T. b. brucei): 2.3 nM"
N=C(N)Nc1ccc(-c2ccc(-c3ccc(N=C(N)N)c(Cl)c3)o2)cc1Cl [MMV688271],600 nM,> 100000 nM,1070 ± 160 nM,5.97,–
NCCN(C(=O)c1ccc(Cl)cc1Cl)c1ccc(OCc2ccc(Cl)cc2)cc1 [MMV688371],< 130 nM,7500 ± 100 nM,1600 ± 100 nM,5.79,–
CCCCN(CCCC)c1c(C#N)cc(S(=O)(=O)Nc2ccccc2)cc1C#N [MMV688467],300 nM,> 100000 nM,3100 ± 500 nM,5.50,–
N=C(N)c1ccc(-c2cc(-c3ccccc3)on2)cc1 [MMV688514],4060 nM,17000 ± 2500 nM,3200 ± 300 nM,5.49,–
Cc1cccnc1NC(=O)c1cccc(OCc2c(C)noc2C)c1 [MMV688793],2070 nM,> 100000 nM,360 ± 40 nM,6.44,–
O=C(NCCc1ccn(-c2ccccc2)n1)C1CCCCC1 [MMV688795],150 nM,> 100000 nM,350 ± 20 nM,6.45,–
O=C(NCc1nnc2n1CCCCC2)c1ccc(-c2ccc(F)cc2)o1 [MMV688796],100 nM,> 100000 nM,30 ± 10 nM,7.52,–
CC1CCCCN1C(=O)NCCc1coc(-c2ccc(F)cc2)n1 (centres unmarked) [MMV688797],130 nM,> 100000 nM,60 ± 20 nM,7.22,–
COc1ccc(S(=O)(=O)Nc2ccc(CN3CCN(C(=O)c4cccc(C#N)c4)CC3)cc2)cc1 [MMV689029],500 nM,> 100000 nM,1300 ± 600 nM,5.88,–
CC(=O)Nc1ccc(-c2noc(CC3CCCN(Cc4cccc(F)c4C)C3)n2)cc1 (centres unmarked) [MMV689061],32300 nM,> 100000 nM,1900 ± 100 nM,5.72,–
COc1ccc(C2=NN(C3CCCCCC3)C(=O)[C@@H]3CC=CC[C@H]23)cc1OCCCCOc1ccc(-c2nn[nH]n2)cc1 [MMV690027],20 nM,> 100000 nM,2800 ± 70 nM,5.55,–
"N=C(N)c1ccc(OCCCCCOc2ccc(C(=N)N)cc2)cc1 [Pentamidine, reference compound]",–,–,–,–,"CC50 at 48 h (in vitro): > 100000 nM; cidal or static effect after inhibitor removal [6]: static profile; IC50 ([4]; Trypanosoma brucei, Table 1, reference drugs included in MMVPB, read-out: IC50 ± SD T. b. b.): 2 ± 0.3 nM; IC50 ([4]; Trypanosoma brucei, Table 1, negative log of IC50 in molar, read-out: pIC50 T. b. b. (converted)): 2 nM; IC50 [4, 8]: 2.24 nM"
"O=C1O[C@H]([C@@H](O)CO)C(O)=C1O [ascorbic acid, reference compound]",–,–,–,–,median reducing concentration (RC50) [7]: 165 µM
